{
  "source": "patent US12338263B2",
  "about": "“Antibacterial aminoglycoside derivatives” (priority 2019, dated 2025)",
  "format_in_all_cases": "cell-based",
  "key": {"[1]": {"test": "Toxicity test on HK-2 cells (Alma Blue)", "conditions": "human, 43 hours incubation plus 3 hours Alma Blue, read-out: CC50 of HK-2 cell", "procedure": "(§1) On the day of the experiment, when the HK-2 cells in the culture flask reached 80%-90% confluent, the culture medium was discarded, the cells were washed twice with Dulbecco's phosphate buffered saline (DPBS) and digested for 1 to 2 minutes with 3 mL trypsin (T150 cell culture flask), and immediately 9 ml complete medium (RPMI1640+10% FBS) were added to terminate the digestion. After termination, single cells suspension were formed by pipetting gently, which were centrifuged at 1000 […] for 5 minutes. The supernatant was discarded, and fresh complete medium were added, and the cells were pipetted evenly. The actual cell density was measured according to the cell counter and the cell suspension was adjusted to 2.5×10^5 cells/mL. 80 μL of cell suspension was drawn by a row pipettor and added into a 96-well black bottom plate (2×10^4 cell/well), and then incubated in a carbon dioxide incubator for 4.5 hours, which was defined as a cell plate.\n(§2) • a. The compound mother liquor was prepared according to the following table, with complete medium as the solvent;\n(§3) • b. 50 microliters of complete medium was added into columns 3-11 in the 96-v well plate; • c. 75 microliters of test compound (50 mg/mL) and positive control were added to the second column of the 96-v well plate; • d. 25 microliters of compound was drawn from the second column and added into the third column, blown and sucked a few times by a row pipettor, then 25 microliters of liquid was drawn from the third column and added to the fourth column, and subsequently subjected to a 3-fold series dilution until the 10th column. From column 2 to column 11, the compound concentration was 50, 16.67, 5.56, 1.85, 0.62, 0.21, 0.07, 0.02, 0.008, 0 mg/mL; • e. 20 μL compound solutions of various concentrations prepared were transferred by a row pipettor to the corresponding wells of the cell plate, which was defined as a testing plate. Culture of the Testing Plate:\n(§4) All the plates were incubated in an incubator at 37° C., 5% CO2 for 43 hours.\n(§5) After incubation, 10 microliters of Alma Blue was added to the testing plate. The testing plate was immediately incubated in an incubator at 37° C., 5% CO2 for 3 hours. Then the fluorescence value of each well of the testing plate was read by a microplate reader (wavelength Ex 540 nm/Em 585 nm). Then prism software was used to simulate the curve to calculate CC50 value."}, "HK-2 cells": {"tested_on": "HK-2 cells", "test": "Toxicity test on HK-2 cells (Alma Blue)", "procedure": "as §1, §2, §3, §4, §5"}, "E. coli ATCC BAA-2523": {"tested_on": "E. coli ATCC BAA-2523", "test": "Antibacterial effect (MIC), micro-liquid dilution method (CLSI)", "conditions": "Escherichia coli, ATCCBAA2523", "procedure": "(§6) Three strains Enterobacteriaceae E. coli ATCC 25922, E. coli ATCC BAA-2523, K. pneumonia ATCC BAA-1705 were used to determine the Minimum Inhibitory Concentration (MIC) of each compound by the micro-liquid dilution method according to the requirements of the Institute of Clinical and Laboratory Standard (CLSI). 2-fold series diluted compounds (with a final concentration range […]) were added to a round bottom 96-well plate (Catalog #3788, Corning). A single clone of fresh bacteria on the plate of Mueller Hinton II Agar (MHA, Cat. No. 211438, BD BBL™) after overnight culture was picked and suspended in sterile saline to adjust the concentration to 1×10^8 CFU/mL, and then diluted to 5×10^5 CFU/mL by Cation-Adjusted Mueller Hinton II Broth (MHB, Catalog #212332, BD BBL™), 100 μL of which was added to the round bottom 96-well plate containing the drug. The plate was inverted and incubated at 37° C. for 20-24 hours, and the MIC value was read. The lowest drug concentration that inhibits bacterial growth was defined as MIC."}, "[2]": {"tested_on": "K. pneumoniae ATCC BAA-1705", "test": "Antibacterial effect (MIC), micro-liquid dilution method (CLSI)", "conditions": "Klebsiella pneumoniae, ATCCBAA1705", "procedure": "as §6"}},
  "data": [
    {"smiles": "CN[C@@H]1[C@@H](O)[C@@H](O[C@@H]2[C@@H](O)[C@H](O[C@H]3OC(CNCCOCCONC(=N)N)=CC[C@H]3N)[C@@H](N)C[C@H]2NC(=O)[C@@H](O)CCN)OC[C@]1(C)O", "note": "[Compound 1]", "values": [
      {"measurement": "CC50 at 43 h", "setting": "[1]", "result": "> 10000", "unit": "µg/mL"},
      {"measurement": "toxicity to HK-2 cells compared with Netilmicin and Amikacin", "setting": "HK-2 cells", "result": "significantly lower than that of Netilmicin and Amikacin"},
      {"measurement": "Maximum inhibition rate", "setting": "HK-2 cells; 43 hours incubation plus 3 hours Alma Blue", "result": 21.96, "unit": "%"},
      {"measurement": "toxicity to HK-2 cells compared with Plazomicin", "setting": "HK-2 cells; toxicity regression curve and software prediction (FIG. 8-11)", "result": "lower than Plazomicin"},
      {"measurement": "MIC", "setting": "E. coli ATCC BAA-2523", "result": 2, "unit": "µM"},
      {"measurement": "MIC", "setting": "[2]", "result": 4, "unit": "µM"}
    ]}
  ]
}
